Earlier results as cited in US9636287B2, “Primecoat compositions for proteinaceous substrates and methods of priming proteinaceous substrates therewith” (Mad River Science, priority 2012, dated 2017).

Test system: EpiDerm Skin Model (normal, human-derived epidermal keratinocytes, NHEK)
Conditions: MatTek Corporation general guideline groupings, example materials

| Compound | ET-50 (hrs) | Expected In vivo Irritancy | ET-50 [h] |
| --- | --- | --- | --- |
| CCCCCCCCCCCCOS(=O)(=O)[O-].[Na+] [1% Sodium Dodecyl Sulfate, Sodium Dodecyl Sulfate] | 0.5-4^ hrs | Moderate | – |
| O=[N+]([O-])O [Conc. Nitric Acid, Nitric Acid] | – | Severe, probably corrosive | <0.5 |
| Triton X-100 [1% Triton X-100] | – | Moderate to Mild | 4 to 12 |
